This test has as its system GSC1228, GSC222, and GSC316. Briefly: Western blot of global histone modifications. It is filed as cell-based. The conditions noted are these: 5 μM, 96 h; changes not statistically significant. As to the method: The effects of S2172 on global histone modifications in GSCs were examined using western blot analysis. GSC cells were treated with 5 μM of S2172 since […] of the cells are still viable at this concentration (Fig. 2, Supplementary Fig. S1E). […] Treatment of GSCs with S2172 increased the overall levels of H3K4me2 as well as H3K9me2. However, these changes were not statistically significant (Fig. 2A, B).
Fig. 2 S2172 affected H3K4me2 modifications. A Western blot analysis of H3K4me1, H3K4me2, H3K4me3, H3K9me2, and H3 after treatment with either DMSO or S2172 (5 μM) for 96 h in GSC1228, GSC222, and GSC316. Histone H3 was used as the loading control. B Quantification of band signal intensities from the western blot of A. The y-axis in the panel indicates relative signal intensity of each protein normalized to histone H3. Error bars indicate the SD. […]
The density of bands was quantified using ImageJ software (https://imagej.nih.gov/ij/). […]
When mice were scanned with MRI, mice were anesthetized with isoflurane (3% in air) and placed in MRS 3017 Benchtop MRI Systems (MR Solutions, Guildford, UK). Using MRI images, tumor volumes were obtained by compiling tumor areas from all slices that contained tumors and calculated by ImageJ software (https://imagej.nih.gov/ij/) {Towner, […]

Structures are written as SMILES.

Consider `NC1CCC(NC2CC2c2cc(F)cc(F)c2OCc2ccccc2)CC1` (stereo not shown) [S2172], for which the “overall levels of H3K4me2 and H3K9me2” value is recorded as “increased”.
